Experimental data from patent US7989438B2, “Therapeutic compounds” (Istituto di Ricerche di Biologia Molecolare P. Angeletti SpA, priority 2007, dated 2011).

System: HCV subgenomic replication
Experiment: Cell based HCV replication assay (subgenomic replicon in Huh-7 cells, NS3 Cell-ELISA)
Settings: Hepatitis C virus; Table A; activity ranges; Huh-7 replicon cells, 96 hours; read-out: IC50 (nM), Inhibition of HCV subgenomic replication
Source text: Cell clones that stably maintain subgenomic HCV replicon were obtained by transfecting Huh-7 cells with an RNA replicon identical to I377neo/NS3-3′/wt described by Lohmann et al. (1999) (EMBL-genbank No. AJ242652), followed by selection with neomycin sulfate (G418). Viral replication was monitored by measuring the expression of the NS3 protein by an ELISA assay performed directly on cells grown in 96 wells microtiter plates (Cell-ELISA) using the anti-NS3 monoclonal antibody 10E5/24 (as described in published International application WO 02/59321). Cells were seeded into 96 well plates at a density of 10^4 cells per well in a final volume of 0.1 ml of DMEM/10% FCS. Two hours after plating, 50 μl of DMEM/10% FCS containing a 3× concentration of inhibitor were added, cells were incubated for 96 hours and then fixed for 10 minutes with ice-cold isopropanol. Each condition was tested in duplicate and average absorbance values were used for calculations. The cells were washed twice with PBS, blocked with 5% non-fat dry milk in PBS+0.1% Triton X100+0.02% SDS (PBSTS) and then incubated o/n at 4° C. with the 10E5/24 mab diluted in Milk/PBSTS. After washing 5 times with PBSTS, the cells were incubated for 3 hours at room temperature with Fc specific anti-mouse IgG conjugated to alkaline phosphatase (Sigma), diluted in Milk/PBSTS. After washing again as above, the reaction was developed with p-Nitrophenyl phosphate disodium substrate (Sigma) and the absorbance at 405/620 nm read at intervals. For calculations, we used data sets where samples incubated without inhibitors had absorbance values comprised between 1 and 1.5. The inhibitor concentration that reduced by 50% the expression of NS3 (IC50) was calculated by fitting the data to the Hill equation, Fraction inhibition=1−(Ai−b)/(A0−b)=[I]^n/([I]^n+[…]) where: • Ai=absorbance value of HBI10 cells supplemented with the indicated inhibitor concentration. • A0=absorbance value of HBI10 cells incubated without inhibitor. • b=absorbance value of Huh-7 cells plated at the same density in the same microtiter plates and incubated without inhibitor. • n=Hill coefficient.

With `CN1CCN2CCN(CC2)S(=O)(=O)NC(=O)c2ccc3c(C4CCCCC4)c4n(c3c2)C[C@@H]1COc1ccccc1-4` [Compound A6, (20R)-30-cyclohexyl-21-methyl-18-oxa-2-thia-1,3,10,21,24-pentaazahexacyclo[22.2.2.1^5,9.1^8,11.1^10,20.0^12,17]hentriaconta-5(31),6,8,11(30),12,14,16-heptaen-4-one 2,2-dioxide] as the compound, how does the IC50 read?
Its IC50 is 25 to 150 nM.

How did the IC50 turn out when `CN1CCN2CCCC2CO[C@@H]2COc3ccccc3-c3c(C4CCCCC4)c4ccc(cc4n3C2)C(=O)NS1(=O)=O` (stereo partly drawn) [Compound A17, (20S)-31-cyclohexyl-10-methyl-19,22-dioxa-9-thia-1,8,10,13-tetraazahexacyclo[18.9.1.1^2,6.1^3,29.0^13,17.0^23,28]dotriaconta-2(32),3,5,23,25,27,29(31)-heptaen-7-one 9,9-dioxide] was run?
The IC50 was 25 to 150 nM.

For `CN1CCN2CCC(C2)N(C)S(=O)(=O)NC(=O)c2ccc3c(C4CCCCC4)c4n(c3c2)C[C@@H]1COc1ccccc1-4` [Compound A18, (18R)-29-cyclohexyl-10,17-dimethyl-20-oxa-9-thia-1,8,10,14,17-pentaazahexacyclo[16.9.1.1^2,6.1^3,27.1^11,14.0^21,26]hentriaconta-2(31),3,5,21,23,25,27(29)-heptaen-7-one 9,9-dioxide], which IC50 is on record?
The IC50 was under 25 nM.

Which IC50 does the source give for `CN1[C@H]2CCN(CCN(C)S(=O)(=O)NC(=O)c3ccc4c(C5CCCCC5)c5n(c4c3)C[C@@H]1COc1ccccc1-5)C2` [Compound A21, (16S,18R)-29-cyclohexyl-10,17-dimethyl-20-oxa-9-thia-1,8,10,13,17-pentaazahexacyclo[16.9.1.1^2,6.1^3,27.1^13,16.0^21,26]hentriaconta-2(31),3,5,21,23,25,27(29)-heptaen-7-one 9,9-dioxide] here?
The IC50 was under 25 nM.

With `O=C1NS(=O)(=O)N2CCN(CCN3CC4(COc5ccccc5-c5c(C6CCCCC6)c6ccc1cc6n5C4)C3)CC2` [Compound A23, 31-cyclohexyl-8-oxa-24-thia-1,4,16,23,25-pentaazaheptacyclo[23.2.2.1^4,6.1^6,16.1^15,18.1^17,21.0^9,14]tritriaconta-9,11,13,15(31),17(30),18,20-heptaen-22-one 24,24-dioxide] as the compound, how does the IC50 read?
Its IC50 is 25 to 150 nM.

Same assay, conditions: Table A; activity ranges; Huh-7 replicon cells, 96 hours; read-out: IC50 (nM), Inhibition of HCV subgenomic replication

With `CC(C)N1CCN(C)C2COc3ccccc3-c3c(C4CCCCC4)c4ccc(cc4n3C2)C(=O)NS(=O)(=O)N(C)CC1` [Compound A4, (7R)-14-cyclohexyl-21-isopropyl-18,24-dimethyl-7,8-dihydro-6H-7,11-(epiminoethanoiminoethanoiminothioiminomethano)indolo[1,2-e][1,5]benzoxazocin-15-one 17,17-dioxide] as the compound, how does the IC50 read?
The IC50 was under 25 nM.

For `CN1CCN(C)[C@H]2COc3ccccc3-c3c(C4CCCCC4)c4ccc(cc4n3C2)C(=O)NS(=O)(=O)N(CC2CC2)CC1` [Compound A5, (7R)-14-cyclohexyl-18-(cyclopropylmethyl)-21,24-dimethyl-7,8-dihydro-6H-7,11-(epiminoethanoiminoethanoiminothioiminomethano)indolo[1,2-e][1,5]benzoxazocin-15-one 17,17-dioxide], which IC50 is on record?
Its IC50 is under 25 nM.

Which IC50 does the source give for `CN1CCOC2COc3ccccc3-c3c(C4CCCCC4)c4ccc(cc4n3C2)C(=O)NS(=O)(=O)N(C)CC1` [Compound A7, (7S)-14-cyclohexyl-18,21-dimethyl-7,8-dihydro-6H-7,11-(epoxyethanoiminoethanoiminothioiminomethano)indolo[1,2-e][1,5]benzoxazocin-15-one 17,17-dioxide] here?
The IC50 was 25 to 150 nM.

With `CN1CCN(C)C2COc3cc(OCc4ccccn4)ccc3-c3c(C4CCCCC4)c4ccc(cc4n3C2)C(=O)NS(=O)(=O)N(C)CC1` [Compound A8, (7R)-14-cyclohexyl-18,21,24-trimethyl-3-(pyridin-2-ylmethoxy)-7,8-dihydro-6H-7,11-(epiminoethanoiminoethanoiminothioiminomethano)indolo[1,2-e][1,5]benzoxazocin-15-one 17,17-dioxide] as the compound, how does the IC50 read?
The IC50 was under 25 nM.

For `CN1CCN(C)CC2Cn3c(c(C4CCCCC4)c4ccc(cc43)C(=O)NS(=O)(=O)N(C)CC1)-c1ccccc1N2C` (centres unmarked) [Compound A9, 13-cyclohexyl-5,17,20,23-tetramethyl-6,7-dihydro-5H-10,6-(methanoiminothioiminoethanoiminoethanoiminomethano)indolo[1,2-d][1,4]benzodiazepin-14-one 16,16-dioxide], which IC50 is on record?
The IC50 was 25 to 150 nM.

For `COc1ccc2c(c1)CC1CCN(C)CCN(C)S(=O)(=O)NC(=O)c3ccc4c(C5CCCCC5)c-2n(c4c3)C1` (centres unmarked) [Compound A10, 13-cyclohexyl-3-methoxy-17,20-dimethyl-6,7-dihydro-5H-6,10-(ethanoiminoethanoiminothioiminomethano)indolo[2,1-a][2]benzazepin-14-one 16,16-dioxide], which IC50 is on record?
Its IC50 is 25 to 150 nM.

For `CN1CCN(C)C2COc3cc(F)ccc3-c3c(C4CCCCC4)c4ccc(cc4n3C2)C(=O)NS(=O)(=O)N(C)CC1` [Compound A11, (7R)-14-cyclohexyl-3-fluoro-18,21,24-trimethyl-7,8-dihydro-6H-7,11-(epiminoethanoiminoethanoiminothioiminomethano)indolo[1,2-e][1,5]benzoxazocin-15-one 17,17-dioxide], which IC50 is on record?
The IC50 was under 25 nM.

With `CCN1CCN(CCN(C)C)C2COc3cc(F)ccc3-c3c(C4CCCCC4)c4ccc(cc4n3C2)C(=O)NS(=O)(=O)N(C)CC1` [Compound A12, (7R)-14-cyclohexyl-24-[2-(dimethylamino)ethyl]-21-ethyl-3-fluoro-18-methyl-7,8-dihydro-6H-7,11-(epiminoethanoiminoethanoiminothioiminomethano)-indolo[1,2-e][1,5]benzoxazocin-15-one 17,17-dioxide] as the compound, how does the IC50 read?
The IC50 was under 25 nM.

With `CN1CCNCCN(C)S(=O)(=O)NC(=O)c2ccc3c(C4CCCCC4)c4n(c3c2)CC1COc1ccccc1-4` [Compound A15, (7S)-14-cyclohexyl-18,24-dimethyl-7,8-dihydro-6H-7,11-(epiminoethanoiminoethanoiminothioiminomethano)indolo[1,2-e][1,5]benzoxazocin-15-one 17,17-dioxide] as the compound, how does the IC50 read?
The IC50 was 150 to 500 nM.

For `CCN1CCN(C)[C@H]2COc3c(C)cccc3-c3c(C4CCCCC4)c4ccc(cc4n3C2)C(=O)NS(=O)(=O)N(C)CC1` [Compound A19, (7R)-14-cyclohexyl-21-ethyl-4,18,24-trimethyl-7,8-dihydro-6H-7,11-(epiminoethanoiminoethanoiminothioiminomethano)indolo[1,2-e][1,5]benzoxazocin-15-one 17,17-dioxide], which IC50 is on record?
The IC50 was under 25 nM.

For `CN1CCOCCN(C)S(=O)(=O)NC(=O)c2ccc3c(C4CCCCC4)c4n(c3c2)C[C@@H]1COc1ccccc1-4` [Compound A20, (7R)-14-cyclohexyl-18,24-dimethyl-7,8-dihydro-6H-7,11-(epiminoethanooxyethanoiminothioiminomethano)indolo[1,2-e][1,5]benzoxazocin-15-one 17,17-dioxide], which IC50 is on record?
The IC50 was 25 to 150 nM.

With `CCCc1cccc2c1OC[C@H]1Cn3c-2c(C2CCCCC2)c2ccc(cc23)C(=O)NS(=O)(=O)N(C)CCN(CC)CCN1C` [Compound A22, (7R)-14-cyclohexyl-21-ethyl-18,24-dimethyl-4-propyl-7,8-dihydro-6H-7,11-(epiminoethanoiminoethanoiminothioiminomethano)indolo[1,2-e][1,5]benzoxazocin-15-one 17,17-dioxide] as the compound, how does the IC50 read?
The IC50 was 25 to 150 nM.
